Measurements as given in article PMC12084297, “Cytoplasmic connexin43-microtubule interactions promote glioblastoma stem-like cell maintenance and tumorigenicity” (Cell Death & Disease, 2025).

Key:
PDX GBM22 tumor = PDX GBM22 tumor growth in mouse flank; assay type: in vivo, mouse (athymic nude), human GBM22 cells; settings: 300 μM intratumorally every day for 14 days, n = 7 mice per group
Procedure: Animal studies were approved by the Institutional Animal Care and Use Committee (IACUC) of Virginia Tech. Female athymic nude mice (Envigo) aged 6-8 weeks were used for the maintenance and propagation of PDX GBM22 cells. PDX GBM22 tumors were maintained by serial passage in nude mouse flanks as described previously. Briefly, tumors were harvested 14–18 days post-injection and glioblastoma cells were mechanically and enzymatically dissociated. […] After 2 days, tumors were measured and mice were randomly separated into three groups (7 mice per group), and vehicle/control (PBS), JM2-scrambled or JM2 were administered at 300 μM intratumorally every day for 14 days. Tumors were then measured by blinded investigators and harvested for analysis (see section below). Tumor volume was calculated using the formula (length × width^2)/2. […] After 7 days, tumors were measured and mice were randomly separated into three groups; vehicle/control (PBS), JM2-scrambled, and JM2 (3 mice per group). […] Tumor sizes were measured by electronic calipers at different times by blinded investigators, and tumor volume was calculated using the formula (length × width^2)/2.

VTC-034 GSCs = experiment: Peptide uptake by confocal fluorescence microscopy, VTC-034 GSCs; assay type: in vitro ADME, human; settings: 50 μM, 24 h, fluorophore-conjugated streptavidin
Procedure: Cells were washed once with warm PBS before fixing in 4% paraformaldehyde for 20 min at room temperature or ice-cold methanol for 5 min on ice, washed twice, and held in PBS at 4°C until immunostaining was conducted. Cells were permeabilized and blocked in 5% normal goat or donkey serum (Fisher Scientific) and 0.1% Triton X-100 in PBS for 2 h at room temperature. Primary antibodies rabbit anti-Cx43 (MilliporeSigma; C6219), mouse anti-pan Cadherin (MilliporeSigma; C1821), or mouse anti-α-tubulin (MilliporeSigma; T6199) were diluted in blocking buffer and labeling was performed overnight at 4 °C. Cells were washed six times with PBS (2 × quick, 2 × 10 min, 2 × 5 min) prior to incubating with goat anti-mouse or -rabbit IgG secondary antibodies (Thermo Fisher) conjugated to Alexa Fluor 488 (A-11029; A-11034), Alexa Fluor 555 (A-21424; A-21429), or Alexa Fluor 647 (A-21236; A-21245) for confocal; or donkey anti-mouse or -rabbit IgG secondary antibodies conjugated to CF568 (Biotium; 20105 and 20098) or Alexa Fluor 647 (Jackson Immunoresearch; 715-605-151 and 711-605-152) for stochastic optical reconstruction microscopy (STORM; see section below), for 1 h at room temperature. DAPI (Thermo Fisher) was included with secondary antibodies to counterstain nuclei for confocal only and was omitted from labeling for STORM. […]

HEY1 mRNA = HEY1 mRNA by RT-qPCR, VTC-037 GSCs; assay type: cell-based, human; settings: 50 μM, 24 h, compared to JM2-scrambled
Procedure: RNA was extracted using the PureLink^TM RNA mini extraction kit (Thermo Fisher) and on-column DNA digestion was completed using PureLink^TM DNase according to the manufacturer’s instructions. RNA was reverse transcribed to generate cDNA using the iScript^TM Reverse Transcription SuperMix for RT-qPCR kit (Bio-Rad Laboratories). Real-time PCR was performed using the SYBR select Master Mix for CFX (Thermo Fisher) in hard-shell 96-well PCR plates (Bio-Rad Laboratories) on a CFX Connect Real Time System (Bio-Rad Laboratories). Primer sequences used were: hNOTCH1_Fwd: 5’-CGCACAAGGTGTCTTCCAG-3’; hNOTCH1_Rev: 5’-CGGCGTGTGAGTTGATGA-3’; hHES1_Fwd: 5’-GGCTGGAGAGGCGGCTAA-3’; hHES1_Rev: 5’-[…]-3’; hHEY1_Fwd: 5’-[…]-3’; hHEY1_Rev: 5’-[…]-3’.

Sequence	GBM22-derived tumor growth (PDX GBM22 tumor)	Peptide localization after uptake (VTC-034 GSCs)	Hey1 mRNA expression (HEY1 mRNA)
GSDVFKRKFVDRKVG [JM2-scrambled, reference compound]	observed GBM22-derived tumor formation	localized within the cytoplasm of GSCs	–
VFFKGVKDRVKGRSD [JM2]	did not detect any significant tumor growth	localized within the cytoplasm of GSCs	significantly decreased the expression of Notch downstream targets Hes1 and Hey1 at the transcription level
